Test results as given in US8758816B2, “Compositions comprising azelastine and methods of use thereof” (priority 2004, dated 2014).
Where a name gives a salt, the structure may show the parent alone.

Test system: patients with seasonal allergic rhinitis (SAR)
Experiment: MP 428 study: individual symptom severity scores (runny nose, itchy nose, sneezing, congestion; 0-3 scale)
Assay type: in vivo, human
Conditions: Intent-to-Treat Population
Experimental: A two-week, randomized, double-blind study, which evaluated the effects of the co-administration of ASTELIN® (azelastine hydrochloride (HCl)) and FLONASE® (fluticasone propionate) compared to either product alone in patients with seasonal allergic rhinitis (SAR) was conducted during the 2006 Texas mountain cedar season. After a 5-day placebo lead-in period, 151 patients with moderate-to-severe allergic rhinitis symptoms were randomized to either: (1) (49 total patients) ASTELIN® (azelastine hydrochloride (HCl)) plus placebo saline nasal spray 2 sprays per nostril, 15 minutes apart, twice daily (AM & PM); (2) (50 total patients) FLONASE® (fluticasone propionate) plus placebo saline nasal spray, 2 sprays per nostril, 15 minutes apart, once daily (AM) and two sessions of placebo saline nasal spray, 2 sprays per nostril, 15 minutes apart (PM); or (3) (52 total patients) the co-administration of ASTELIN® (azelastine hydrochloride (HCl)) 2 sprays per nostril plus FLONASE® (fluticasone propionate) 2 sprays per nostril (AM), 15 minutes apart, and ASTELIN® (azelastine hydrochloride (HCl)) 2 sprays per nostril plus placebo saline nasal spray, 15 minutes apart, (PM) for a 2-week double-blind treatment period.
The primary efficacy variable was the change from baseline in the Total Nasal Symptom Score (TNSS), which comprised sneezing, itchy nose, runny nose, and nasal congestion (individual symptoms scores were assigned a value between 0 and 3, where 0=no symptoms and 3=severe symptoms). This study was not statistically designed to assess the differences between ASTELIN® and FLONASE®.
The results of the clinical trial are summarized and presented in Appendix A hereinbelow and in FIGS. 1-6. […] FIGS. 2-5 show the mean improvement in severity score (0-3 scale) from baseline for the symptoms of runny nose, itchy nose, sneezing and congestion, respectively.

`CN1CCCC(n2nc(Cc3ccc(Cl)cc3)c3ccccc3c2=O)CC1` (racemic) [Azelastine, (±)-1-(2H)-phthalazinone, 4-[(4-chlorophenyl)methyl]-2-(hexahydro-1-methyl-1H-azepin-4-yl)-, mono-hydrochloride] was tested, and the “Change from Baseline in AM and PM Combined Nasal Symptom Score: Congestion, LS Mean” value (Day 9) was −1.20, the “Change from Baseline in AM and PM Combined Nasal Symptom Score: Congestion, Mean” value (Day 9) was −1.23 and the “Change from Baseline in AM and PM Combined Nasal Symptom Score: Congestion, Median” value (Day 9) was −1.00. The “Change from Baseline in AM and PM Combined Nasal Symptom Score: Itchy Nose, LS Mean” value (Day 9) was −1.29, the “Change from Baseline in AM and PM Combined Nasal Symptom Score: Itchy Nose, Mean” value (Day 9) was −1.27 and the “Change from Baseline in AM and PM Combined Nasal Symptom Score: Itchy Nose, Median” value (Day 9) was −0.93. The “Change from Baseline in AM and PM Combined Nasal Symptom Score: Runny Nose, LS Mean” value (Day 9) was −1.14, the “Change from Baseline in AM and PM Combined Nasal Symptom Score: Runny Nose, Mean” value (Day 9) was −1.15 and the “Change from Baseline in AM and PM Combined Nasal Symptom Score: Runny Nose, Median” value (Day 9) was −0.90. For the same compound, the “Change from Baseline in AM and PM Combined Nasal Symptom Score: Sneezing, LS Mean” value (Day 9) was −1.72, the “Change from Baseline in AM and PM Combined Nasal Symptom Score: Sneezing, Mean” value (Day 9) was −1.73 and the “Change from Baseline in AM and PM Combined Nasal Symptom Score: Sneezing, Median” value (Day 9) was −1.67. The “Percent Change from Baseline in AM and PM Combined Nasal Symptom Score: Congestion, LS Mean” value (“Percent Change … Congestion, LS Mean” below) (Day 9) was −21.68%, the “Percent Change from Baseline in AM and PM Combined Nasal Symptom Score: Congestion, Mean” value (from here on “Percent Change from Baseline … Congestion, Mean”) (Day 9) was −22.05% and the “Percent Change from Baseline in AM and PM Combined Nasal Symptom Score: Congestion, Median” value (from here on “Percent Change … Congestion, Median”) (Day 9) was −18.64%. The “Percent Change from Baseline in AM and PM Combined Nasal Symptom Score: Itchy Nose, LS Mean” value (from here on “Percent Change … Itchy Nose, LS Mean”) (Day 9) was −27.69%, the “Percent Change from Baseline in AM and PM Combined Nasal Symptom Score: Itchy Nose, Mean” value (shortened to “Percent Change from Baseline … Itchy Nose, Mean”) (Day 9) was −26.97% and the “Percent Change from Baseline in AM and PM Combined Nasal Symptom Score: Itchy Nose, Median” value (shortened to “Percent Change … Itchy Nose, Median”) (Day 9) was −21.57%. The “Percent Change from Baseline in AM and PM Combined Nasal Symptom Score: Runny Nose, LS Mean” value (shortened to “Percent Change … Runny Nose, LS Mean”) (Day 9) was −23.07%, the “Percent Change from Baseline in AM and PM Combined Nasal Symptom Score: Runny Nose, Mean” value (“Percent Change from Baseline … Runny Nose, Mean” below) (Day 9) was −23.25% and the “Percent Change from Baseline in AM and PM Combined Nasal Symptom Score: Runny Nose, Median” value (“Percent Change … Runny Nose, Median” for short) (Day 9) was −21.74%. The “Percent Change from Baseline in AM and PM Combined Nasal Symptom Score: Sneezing, LS Mean” value (from here on “Percent Change from Baseline … Sneezing, LS Mean”) (Day 9) was −36.31%, the “Percent Change from Baseline in AM and PM Combined Nasal Symptom Score: Sneezing, Mean” value (shortened to “Percent Change from Baseline … Sneezing, Mean”) (Day 9) was −36.04% and the “Percent Change from Baseline in AM and PM Combined Nasal Symptom Score: Sneezing, Median” value (“Percent Change from Baseline … Sneezing, Median” for short) (Day 9) was −35.48%. For the same compound, the “Change from Baseline in AM and PM Combined Nasal Symptom Score: Congestion, LS Mean” value (Day 10) was −1.12, the “Change from Baseline in AM and PM Combined Nasal Symptom Score: Congestion, Mean” value (Day 10) was −1.17 and the “Change from Baseline in AM and PM Combined Nasal Symptom Score: Congestion, Median” value (Day 10) was −1.00. For the same compound, the “Change from Baseline in AM and PM Combined Nasal Symptom Score: Itchy Nose, LS Mean” value (Day 10) was −1.35, the “Change from Baseline in AM and PM Combined Nasal Symptom Score: Itchy Nose, Mean” value (Day 10) was −1.35 and the “Change from Baseline in AM and PM Combined Nasal Symptom Score: Itchy Nose, Median” value (Day 10) was −1.10. The “Change from Baseline in AM and PM Combined Nasal Symptom Score: Runny Nose, LS Mean” value (Day 10) was −1.11, the “Change from Baseline in AM and PM Combined Nasal Symptom Score: Runny Nose, Mean” value (Day 10) was −1.13 and the “Change from Baseline in AM and PM Combined Nasal Symptom Score: Runny Nose, Median” value (Day 10) was −0.83. The “Change from Baseline in AM and PM Combined Nasal Symptom Score: Sneezing, LS Mean” value (Day 10) was −1.70, the “Change from Baseline in AM and PM Combined Nasal Symptom Score: Sneezing, Mean” value (Day 10) was −1.71 and the “Change from Baseline in AM and PM Combined Nasal Symptom Score: Sneezing, Median” value (Day 10) was −1.75. For the same compound, the “Percent Change … Congestion, LS Mean” value (Day 10) was −20.32%, the “Percent Change from Baseline … Congestion, Mean” value (Day 10) was −20.94% and the “Percent Change … Congestion, Median” value (Day 10) was −16.67%. For the same compound, the “Percent Change … Itchy Nose, LS Mean” value (Day 10) was −29.83%, the “Percent Change from Baseline … Itchy Nose, Mean” value (Day 10) was −29.56% and the “Percent Change … Itchy Nose, Median” value (Day 10) was −21.57%. The “Percent Change … Runny Nose, LS Mean” value (Day 10) was −22.00%, the “Percent Change from Baseline … Runny Nose, Mean” value (Day 10) was −22.22% and the “Percent Change … Runny Nose, Median” value (Day 10) was −16.67%. The “Percent Change from Baseline … Sneezing, LS Mean” value (Day 10) was −41.13%, the “Percent Change from Baseline … Sneezing, Mean” value (Day 10) was −40.82% and the “Percent Change from Baseline … Sneezing, Median” value (Day 10) was −38.78%. For the same compound, the “Change from Baseline in AM and PM Combined Nasal Symptom Score: Congestion, LS Mean” value (Day 11) was −1.18, the “Change from Baseline in AM and PM Combined Nasal Symptom Score: Congestion, Mean” value (Day 11) was −1.23 and the “Change from Baseline in AM and PM Combined Nasal Symptom Score: Congestion, Median” value (Day 11) was −0.92. The “Change from Baseline in AM and PM Combined Nasal Symptom Score: Itchy Nose, LS Mean” value (Day 11) was −1.39, the “Change from Baseline in AM and PM Combined Nasal Symptom Score: Itchy Nose, Mean” value (Day 11) was −1.37 and the “Change from Baseline in AM and PM Combined Nasal Symptom Score: Itchy Nose, Median” value (Day 11) was −1.10. For the same compound, the “Change from Baseline in AM and PM Combined Nasal Symptom Score: Runny Nose, LS Mean” value (Day 11) was −1.35, the “Change from Baseline in AM and PM Combined Nasal Symptom Score: Runny Nose, Mean” value (Day 11) was −1.38 and the “Change from Baseline in AM and PM Combined Nasal Symptom Score: Runny Nose, Median” value (Day 11) was −1.10. For the same compound, the “Change from Baseline in AM and PM Combined Nasal Symptom Score: Sneezing, LS Mean” value (Day 11) was −1.79, the “Change from Baseline in AM and PM Combined Nasal Symptom Score: Sneezing, Mean” value (Day 11) was −1.79 and the “Change from Baseline in AM and PM Combined Nasal Symptom Score: Sneezing, Median” value (Day 11) was −1.55. The “Percent Change … Congestion, LS Mean” value (Day 11) was −20.72%, the “Percent Change from Baseline … Congestion, Mean” value (Day 11) was −21.53% and the “Percent Change … Congestion, Median” value (Day 11) was −16.67%. The “Percent Change … Itchy Nose, LS Mean” value (Day 11) was −30.38%, the “Percent Change from Baseline … Itchy Nose, Mean” value (Day 11) was −29.59% and the “Percent Change … Itchy Nose, Median” value (Day 11) was −22.33%. For the same compound, the “Percent Change … Runny Nose, LS Mean” value (Day 11) was −25.36%, the “Percent Change from Baseline … Runny Nose, Mean” value (Day 11) was −25.83% and the “Percent Change … Runny Nose, Median” value (Day 11) was −21.57%. The “Percent Change from Baseline … Sneezing, LS Mean” value (Day 11) was −43.40%, the “Percent Change from Baseline … Sneezing, Mean” value (Day 11) was −42.70% and the “Percent Change from Baseline … Sneezing, Median” value (Day 11) was −38.78%. For the same compound, the “Change from Baseline in AM and PM Combined Nasal Symptom Score: Congestion, LS Mean” value (Day 12) was −1.21, the “Change from Baseline in AM and PM Combined Nasal Symptom Score: Congestion, Mean” value (Day 12) was −1.27 and the “Change from Baseline in AM and PM Combined Nasal Symptom Score: Congestion, Median” value (Day 12) was −1.00. The “Change from Baseline in AM and PM Combined Nasal Symptom Score: Itchy Nose, LS Mean” value (Day 12) was −1.33, the “Change from Baseline in AM and PM Combined Nasal Symptom Score: Itchy Nose, Mean” value (Day 12) was −1.33 and the “Change from Baseline in AM and PM Combined Nasal Symptom Score: Itchy Nose, Median” value (Day 12) was −1.00. For the same compound, the “Change from Baseline in AM and PM Combined Nasal Symptom Score: Runny Nose, LS Mean” value (Day 12) was −1.22, the “Change from Baseline in AM and PM Combined Nasal Symptom Score: Runny Nose, Mean” value (Day 12) was −1.25 and the “Change from Baseline in AM and PM Combined Nasal Symptom Score: Runny Nose, Median” value (Day 12) was −0.43. For the same compound, the “Change from Baseline in AM and PM Combined Nasal Symptom Score: Sneezing, LS Mean” value (Day 12) was −1.63, the “Change from Baseline in AM and PM Combined Nasal Symptom Score: Sneezing, Mean” value (Day 12) was −1.63 and the “Change from Baseline in AM and PM Combined Nasal Symptom Score: Sneezing, Median” value (Day 12) was −1.73.
